Here are results for six compounds from publication PMC6588435 (Cell chemical biology, 2019).

Test [1] addresses T1, Mtb DHFR (Mycobacterium tuberculosis, UniProt P9WNX1). Nature of the test: biochemical.
The target in test [2] is T1, Mtb DHFR. Nature of the test: biochemical. The source holds these as a separate data set.
In the next test the target is Mtb Rv2671 (Mycobacterium tuberculosis, UniProt P71968). Nature of the test: Mtb Rv2671 enzyme inhibition assay. Type of test: biochemical.
The target of test [3] is T2, Mtb FDTS (Mycobacterium tuberculosis, UniProt P9WG57). As to the kind of experiment: HPLC analysis of Mtb FDTS reaction. Type of test: biochemical.
Test [4] deals with T2, Mtb FDTS. As to the kind of experiment: Differential scanning calorimetry of Mtb FDTS. The note with it: DSC; control (FDTS, dUMP, FAD) 66.6 °C. For orientation: In DSC, transitions show as peaks or steps in heat flow.
For test [5], the target named is T2, Mtb FDTS. Nature of the test: Mtb FDTS NADPH oxidation assay. Type of test: biochemical.
In a further test the test system is Mtb Erdman (ATCC 35801). Nature of the test: In vitro susceptibility testing. Type of test: cell-based, Mycobacterium tuberculosis.
Another test relates to Mtb Erdman cells. Type of test: cell-based, Mycobacterium tuberculosis.
In test [6] the target is T1, Mtb DHFR. It counts as binding. The note with it: DSC, with NADPH; control (Mtb DHFR+NADPH) 65 °C.
For a further test, the system named is Mtb cells. To be noted: treatment of Mtb cells; ref Nixon et al. (2014); cited from earlier work.
Where [7] appears, read: read-out: Mtb Rv2671 Ki, 50 μM NADPH.

Converted amounts (≈) assume the structure as drawn. “And” between values parts separate entries of the source, which are not always exact repeats. Equal values may be shown once. Read-outs that look alike come from different tables or passages of the source. Bounds are passed on as bounds.

T2 sequence (P9WG57 whole entry): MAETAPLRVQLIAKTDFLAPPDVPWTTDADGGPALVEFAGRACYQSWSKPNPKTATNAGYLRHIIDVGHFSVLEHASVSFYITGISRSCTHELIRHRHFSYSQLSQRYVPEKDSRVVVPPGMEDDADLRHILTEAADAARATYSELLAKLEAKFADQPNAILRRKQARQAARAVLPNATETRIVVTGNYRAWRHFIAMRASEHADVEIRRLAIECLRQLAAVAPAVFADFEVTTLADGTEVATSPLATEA
T1 sequence (P9WNX1 whole entry): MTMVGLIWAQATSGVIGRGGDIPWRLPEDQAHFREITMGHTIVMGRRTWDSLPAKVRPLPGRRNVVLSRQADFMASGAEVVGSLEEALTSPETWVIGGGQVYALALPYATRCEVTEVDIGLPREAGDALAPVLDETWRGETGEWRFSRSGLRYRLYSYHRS

`Nc1nc(=O)c2nc(CNc3ccc(C(=O)NC(CCC(=O)O)C(=O)O)c(O)c3)cnc2[nH]1` (centres unmarked) [PAS-M, 2-[(4-{[(2-amino-4-oxo-1,4-dihydropteridin-6-yl)methyl]amino}-2-hydroxyphenyl)formamido] pentanedioic acid]: the Ki at Mtb DHFR [1] came out at 750 ± 120 nM; at Mtb Rv2671, 27500 nM. Also, on Mtb DHFR [2] (read-out: Mtb DHFR koff), the koff was 0.0107 s⁻¹. Further, the residence time at Mtb DHFR [2] (read-out: Mtb DHFR tR (residence time)) was found to be 1.5 ± 0.3 min. Moreover, at Mtb FDTS [3], the “decrease in dTMP levels compared to control” value was ~ 2.5 fold. The “Mtb FDTS Tm” value on Mtb FDTS [4] was 71.9 °C. Further, it took 14400 ± 1500 nM to reach half-maximal inhibition on Mtb FDTS [5] (IC50).
`CN(Cc1cnc2nc(N)nc(N)c2n1)c1ccc(C(=O)N[C@@H](CCC(=O)O)C(=O)O)cc1` [MTX, Methotrexate] had an MIC against Mtb Erdman (ATCC 35801) (Mycobacterium tuberculosis, ATCC35801|ERDMAN) of more than 100 µg/mL.
Turning to `Nc1ccc(C(=O)O)c(O)c1` [PAS, para-aminosalicylic acid], the “reduction of 14C incorporation to the FAME/MAME fraction” value with Mtb Erdman cells (0.36 μg/ml) is 52%. For the same compound, the “effect on methoxymycolic acids” value in the test on Mtb Erdman cells (TLC of FAME/MAME) was “significant reduction”. Besides, the MIC in the test with Mtb Erdman (ATCC 35801) (Mycobacterium tuberculosis, ATCC35801|ERDMAN, read-out: MIC, WT Mtb) was 0.5 µg/mL (≈ 3.27 µM).
On to `CCc1nc(N)nc(N)c1C#C[C@H](C)c1cc(-c2ccncc2)ccc1OC` [UCP1063], for which the “Mtb DHFR Tm” value at Mtb DHFR [6] was 71 °C and 71 ± 2.7 °C. For the same compound, the Ki at Mtb Rv2671 (setting [7]) was 52 ± 6.2 nM. The compound also returned an MIC in the test with Mtb Erdman (ATCC 35801) of 2 µg/mL (≈ 5.36 µM).
For `CC1(C)N=C(N)N=C(N)N1OCCCOc1cc(Cl)c(Cl)cc1Cl` [WR99210], in the test with Mtb cells, the “decrease in the concentration of SAM” value is reported as 20 fold.
`CCc1nc(N)nc(N)c1C#C[C@@H](C)c1cc(-c2ccc(C(=O)O)cc2)ccc1OC` [UCP1164]: the Ki at Mtb Rv2671 (setting [7]) is 120 ± 8.5 nM. The MIC with Mtb Erdman (ATCC 35801) came out at 0.5 µg/mL (≈ 1.2 µM).

As a reminder, the Ki is the dissociation constant of the complex between target and ligand, obtained from inhibition or displacement. One may read the koff as the rate constant with which the complex falls apart. Usually IC50 stands for the concentration needed to halve the response being measured. Low readings indicate greater potency, high ones weaker potency. As usually defined, the MIC is the lowest concentration found to suppress growth.
